Source: patent US4130709A, “Pleuromutilin glycoside derivatives” (Eli Lilly and Company, priority 1977, dated 1978)
Converted amounts (≈) assume the structure as drawn. Where two headings read alike, the source gives them in different places.

Key:
Type in all cases: cell-based
Peptococcus prevoti = assay: standard agar-dilution test, anaerobic bacteria
Actinomyces israelii = assay: standard agar-dilution test, anaerobic bacteria; conditions: 24-hour incubation
[1] = test system: Bacteroides fragilis 1877; assay: standard agar-dilution test, anaerobic bacteria
Bacteroides corrodens = assay: standard agar-dilution test, anaerobic bacteria; conditions: Eikenella corrodens
Bacteroides fragilis 111 = assay: standard agar-dilution test, anaerobic bacteria
[2] = test system: Bacteroides melaninogenicus 1856/28; assay: standard agar-dilution test, anaerobic bacteria; conditions: Prevotella intermedia
Mycoplasma gallisepticum = assay: in vitro broth-dilution studies, mycoplasma; conditions: Mycoplasmoides gallisepticum
From the text: (§1) The minimal inhibitory concentrations (MIC's) of a number of typical compounds of the present invention (R^2 =H in group tested) against various mycoplasma species, as determined by in vitro broth-dilution studies, are summarized in Table V.

Mycoplasma hyorhinis = assay: in vitro broth-dilution studies, mycoplasma
From the text: as §1

Mycoplasma synoviae = assay: in vitro broth-dilution studies, mycoplasma; conditions: Mycoplasmopsis synoviae
From the text: as §1

[3] = test system: Peptostreptococcus anaerobius; assay: standard agar-dilution test, anaerobic bacteria; conditions: 24-hour incubation
Fusobacterium symbiosum = assay: standard agar-dilution test, anaerobic bacteria; conditions: Fusobacterium, 24 h
Bacteroides vulgatis = assay: standard agar-dilution test, anaerobic bacteria
[4] = test system: Staphylococcus aureus (H-Heatley) NRRL B-314; assay: in vitro turbidometric assay (Autoturb Microbiological Assay System) against Staphylococcus aureus; conditions: nutrient broth pH 7, approximately 4 hours at 37° C., A-40104 factor A as standard
Description: The compounds are conveniently tested against a typical gram-positive organism, Staphylococcus aureus, using a turbidometric assay on a semi-automated system (Autoturb Microbiological Assay System, Elanco) described by N. R. Kuzel and F. W. Kavanagh in J. Pharmaceut. Sci, 60 (5), 764 and 767 (1971). In testing these compounds, the following parameters were used: Staphylococcus aureus (H-Heatley) NRRL B-314 in a nutrient broth medium (pH 7), incubated for approximately 4 hours at 37° C. Test samples and A-40104 factor A, which is used as a standard, were dissolved in water. The standard was presented to the Autoturb carrousel at concentrations of 1.25, 2.50, 3.75, 5.00 and 6.25 mcg/ml. Test compounds were diluted to contain approximately 2.5 to 5.0 mcg of activity per ml, as presented to the carrousel. The units of activity of some of the typical compounds of this invention (R^2 =H in group tested) in this in vitro assay are summarized in Table I

[5] = test system: Fusobacterium necrophorum; assay: standard agar-dilution test, anaerobic bacteria
Clostridium perfringens = assay: microbe, parasite or virus in culture; conditions: 24 h
[6] = test system: Bacteroides fragilis 1936B; assay: standard agar-dilution test, anaerobic bacteria
Eubacterium aerofaciens = assay: standard agar-dilution test, anaerobic bacteria; conditions: Collinsella aerofaciens, 24 h
[7] = test system: Peptococcus asaccharolyticus; assay: standard agar-dilution test, anaerobic bacteria; conditions: Peptoniphilus asaccharolyticus, 24-hour incubation
[8] = test system: Bacteroides thetaiotaomicron; assay: standard agar-dilution test, anaerobic bacteria; conditions: 24-hour incubation
Description: (§2) Table IV summarizes the activity of typical compounds of this invention, as determined by the standard agar-dilution test.
(§3) *Endpoint read after 24-hour incubation

Clostridium septicum = assay: standard agar-dilution test, anaerobic bacteria; conditions: 24-hour incubation
Description: as §2, §3

[9] = test system: Peptostreptococcus intermedius; assay: standard agar-dilution test, anaerobic bacteria
[10] = test system: Bacteroides melaninogenicus 2736; assay: standard agar-dilution test, anaerobic bacteria; conditions: Bacteroides melaninogenicus 2736; 24-hour incubation; read-out: MIC
Spiroplasma citri = assay: in vitro inhibition of Spiroplasma citri measured by a color reaction; set-up: key to Activity (color reaction): Red (R) includes complete inhibition; red-orange (RO) indicates partial inhibition; yellow (Y) indicates no inhibition
Description: In another important aspect, the compounds of this invention are active against Spiroplasmas. Spiroplasma citri is the causative agent of citrus-stubborn disease; another Spiroplasma, corn-stunt Spiroplasma, affects the growth of corn. Table VII summarizes the in vitro activity of representative compounds of the present invention (R^2 =H in this group) against Spiroplasma citri. In this test, inhibition of S. citri is measured by a color reaction. Red (R) includes complete inhibition; red-orange (RO) indicates partial inhibition; and yellow (Y) indicates no inhibition.

[11] = Peptococcus prevoti, 24-hour incubation, read-out: MIC
[12] = Bacteroides fragilis 1877, 24-hour incubation, read-out: MIC
[13] = Bacteroides corrodens, 24-hour incubation, read-out: MIC
[14] = Bacteroides fragilis, 111, 24 h
[15] = Bacteroides vulgatis, 24-hour incubation, read-out: MIC
[16] = 24-hour incubation, read-out: MIC
[17] = Bacteroides fragilis 1936B, 24-hour incubation, read-out: MIC
[18] = Peptostreptococcus intermedius, 24-hour incubation, read-out: MIC

## C=C[C@]1(C)C[C@@H](OC(=O)CS[C@@H]2O[C@H](COC(C)=O)[C@@H](OC(C)=O)[C@H](OC(C)=O)[C@H]2OC(C)=O)[C@]2(C)[C@H](C)CC[C@]3(CCC(=O)[C@H]32)[C@@H](C)[C@@H]1O [Compound 11, 14-deoxy-14-[(2,3,4,6-tetra-O-acetyl-β-D-glucopyranosyl)thioacetoxy]mutilin]
Peptococcus prevoti; [11]
  MIC: ≤ 0.5 µg/mL
Actinomyces israelii
  MIC: ≤ 0.5 µg/mL
[1]; [12]
  MIC: 32 µg/mL (≈ 44.1 µM)
Bacteroides corrodens; [13]
  MIC: 32 µg/mL (≈ 44.1 µM)
Bacteroides fragilis 111; [14]
  MIC: 128 µg/mL (≈ 177 µM)
[2]; 1856/28, 24 h
  MIC: > 128 µg/mL
Mycoplasma gallisepticum
  MIC: > 0.78 µg/mL
Mycoplasma hyorhinis
  MIC: > 0.78 µg/mL
Mycoplasma synoviae
  MIC: 1.56 µg/mL (≈ 2.15 µM)
[3]
  MIC: ≤ 0.5 µg/mL
Fusobacterium symbiosum
  MIC: 128 µg/mL (≈ 177 µM)
Bacteroides vulgatis; [15]
  MIC: 32 µg/mL (≈ 44.1 µM)
[4]
  Units of Activity: 253 to 265 µg/mg
[5]; [16]
  MIC: 16 µg/mL (≈ 22.1 µM)
Clostridium perfringens
  MIC: > 128 µg/mL
[6]; [17]
  MIC: 32 µg/mL (≈ 44.1 µM)
Eubacterium aerofaciens
  MIC: > 128 µg/mL
[7]
  MIC: ≤ 0.5 µg/mL
[8]
  MIC: 16 µg/mL (≈ 22.1 µM)
Clostridium septicum
  MIC: 16 µg/mL (≈ 22.1 µM)
[9]; [18]
  MIC: 1 µg/mL (≈ 1.38 µM)
[10]
  MIC: 16 µg/mL (≈ 22.1 µM)

## CC[C@]1(C)C[C@@H](OC(=O)CS[C@@H]2O[C@H](COC(C)=O)[C@@H](OC(C)=O)[C@H](OC(C)=O)[C@H]2OC(C)=O)[C@]2(C)[C@H](C)CC[C@]3(CCC(=O)[C@H]32)[C@@H](C)[C@@H]1O [Compound 4, 14-deoxy-14-[(2,3,4,6-tetra-O-acetyl-β-D-glucopyranosyl)thioacetoxy]-19,20-dihydromutilin]
Spiroplasma citri; 0.01 ppm
  Activity (color reaction): Y
Spiroplasma citri; 0.05 ppm
  Activity (color reaction): R
Spiroplasma citri; 0.1 ppm
  Activity (color reaction): R
Spiroplasma citri; 1.0 ppm
  Activity (color reaction): R
Peptococcus prevoti; [11]
  MIC: 8 µg/mL (≈ 11 µM)
Actinomyces israelii
  MIC: ≤ 0.5 µg/mL
[1]; [12]
  MIC: 32 µg/mL (≈ 44 µM)
Bacteroides corrodens; [13]
  MIC: 32 µg/mL (≈ 44 µM)
Bacteroides fragilis 111; Bacteroides fragilis 111, 24-hour incubation, read-out: MIC
  MIC: 32 µg/mL (≈ 44 µM)
[2]; Bacteroides melaninogenicus 1856/28, 24-hour incubation, read-out: MIC
  MIC: 8 µg/mL (≈ 11 µM)
[3]
  MIC: 1 µg/mL (≈ 1.38 µM)
Fusobacterium symbiosum
  MIC: 128 µg/mL (≈ 176 µM)
Bacteroides vulgatis; [15]
  MIC: 32 µg/mL (≈ 44 µM)
[4]
  Units of Activity: 203 to 220 µg/mg
[5]; [16]
  MIC: ≤ 0.5 µg/mL
Clostridium perfringens
  MIC: > 128 µg/mL
[6]; [17]
  MIC: 64 µg/mL (≈ 88 µM)
Eubacterium aerofaciens
  MIC: > 128 µg/mL
[7]
  MIC: ≤ 0.5 µg/mL
[8]
  MIC: 64 µg/mL (≈ 88 µM)
Clostridium septicum
  MIC: 4 µg/mL (≈ 5.5 µM)
[9]; [18]
  MIC: 2 µg/mL (≈ 2.75 µM)
[10]
  MIC: 4 µg/mL (≈ 5.5 µM)

## C=C[C@]1(C)C[C@@H](OC(=O)CO[C@H]2O[C@H](COC(C)=O)[C@@H](OC(C)=O)[C@H](OC(C)=O)C2=NO)[C@]2(C)[C@H](C)CC[C@]3(CCC(=O)[C@H]32)[C@@H](C)[C@@H]1O [Compound 7, 14-deoxy-14-[(2-deoxy-2-(hydroxyimino)-3,4,6-tri-O-acetyl-α-D-glucopyranosyl)oxyacetoxy]mutilin]
Peptococcus prevoti; 24 h
  MIC: 128 µg/mL (≈ 188 µM)
Actinomyces israelii
  MIC: 64 µg/mL (≈ 94.2 µM)
[1]; Bacteroides fragilis, 1877, 24 h
  MIC: > 128 µg/mL
Bacteroides corrodens; 24 h
  MIC: > 128 µg/mL
Bacteroides fragilis 111; [14]
  MIC: > 128 µg/mL
[2]; 1856/28, 24 h
  MIC: > 128 µg/mL
Mycoplasma gallisepticum
  MIC: 0.78 µg/mL (≈ 1.15 µM)
Mycoplasma hyorhinis
  MIC: 0.78 µg/mL (≈ 1.15 µM)
Mycoplasma synoviae
  MIC: > 6.25 µg/mL
[3]
  MIC: 64 µg/mL (≈ 94.2 µM)
Fusobacterium symbiosum
  MIC: > 128 µg/mL
Bacteroides vulgatis; Bacteroides, 24 h
  MIC: > 128 µg/mL
[4]
  Units of Activity: 11 to 12 µg/mg
[5]; 24 h
  MIC: > 128 µg/mL
Clostridium perfringens
  MIC: > 128 µg/mL
[6]; Bacteroides fragilis, 1936B, 24 h
  MIC: > 128 µg/mL
Eubacterium aerofaciens
  MIC: > 128 µg/mL
[7]
  MIC: 64 µg/mL (≈ 94.2 µM)
[8]
  MIC: > 128 µg/mL
Clostridium septicum
  MIC: > 128 µg/mL
[9]; Peptostreptococcus, 24 h
  MIC: > 128 µg/mL
[10]
  MIC: 32 µg/mL (≈ 47.1 µM)

## C=C[C@]1(C)C[C@@H](OC(=O)CO[C@@H]2O[C@H](CO)[C@@H](O)[C@H](O)[C@H]2O)[C@]2(C)[C@H](C)CC[C@]3(CCC(=O)[C@H]32)[C@@H](C)[C@@H]1O [Example 4, 14-deoxy-14-[(β-D-glucopyranosyl)oxyacetoxy]-mutilin]
Spiroplasma citri; 0.1 ppm
  Activity (color reaction): Y
Spiroplasma citri; 1.0 ppm
  Activity (color reaction): R
Mycoplasma gallisepticum
  MIC: 0.39 µg/mL (≈ 0.721 µM)
Mycoplasma hyorhinis
  MIC: 0.78 µg/mL (≈ 1.44 µM)
Mycoplasma synoviae
  MIC: 0.78 µg/mL (≈ 1.44 µM)
[4]
  Units of Activity: 12 to 13 µg/mg
